# Laboratory results reported in patent US20240358831A1, “SELECTION OF IMMUNE CELLS USING PEPTIDE MHC COMPLEXES GENERATED BY CONDITIONAL LIGAND EXCHANGE” (IMMATICS US, INC., priority 2021, published 2024).
# Test system: CD8+ T cells
# Test: In vitro priming of CD8+ T cells with aAPCs (pHLA/anti-CD28) and pHLA multimer staining
# Assay type: cell-based, human
# Protocol: To perform in vitro stimulations by artificial antigen-presenting cells (aAPCs) loaded with peptide-HLA complexes (pHLA) and anti-CD28 antibody, the inventors first isolated CD8+ T cells via positive selection using CD8 microbeads (Miltenyi Biotec, Bergisch-Gladbach, Germany) from fresh HLA-matched leukapheresis products of healthy donors obtained from the University clinics Mannheim, Germany, after informed consent.
# PBMCs and isolated CD8+ lymphocytes were incubated in T cell medium (TCM) until use consisting of RPMI-Glutamax (Thermo Fisher Scientific, Waltham, USA) supplemented with 10% heat-inactivated human AB serum (CC Pro, Oberdorla, Germany), 100 U/ml Penicillin/100 μg/ml Streptomycin (Biozym, Hessisch Oldendorf, Germany), 1 mM sodium pyruvate (CC Pro, Oberdorla, Germany) and 20 μg/ml Gentamycin (Biozym, Hessisch Oldendorf, Germany). 2.5 ng/ml IL-7 (PromoCell, Heidelberg, Germany) and 10 U/ml IL-2 (Novartis Pharma, Nürnberg, Germany) were also added to the TCM at this step.
# The purified co-stimulatory mouse IgG2a anti human CD28 Ab 9.3 (Jung et al., 1987) was chemically biotinylated using sulfo-N-hydroxysuccinimidobiotin as recommended by the manufacturer (Perbio, Bonn, Germany). Beads used were 5.6 μm diameter streptavidin coated polystyrene particles (Bangs Laboratories, Illinois, USA).
# 800.000 beads/200 μl were coated in 96-well plates in the presence of up to four different biotinylated pHLA complexes (total amount 50 ng/well), washed and 600 ng biotinylated anti-CD28 were added subsequently in a volume of 200 μl/well.
# Stimulations were initiated in 96-well plates by co-incubating 1×10^6 CD8+ T cells with 2×10^5 washed aAPCs in 200 μl TCM supplemented with 5 ng/ml IL-12 (PromoCell) for 3 days at 37° C. Half of the medium was then exchanged by fresh TCM supplemented with 80 U/ml IL-2 and incubation was continued for 4 days at 37° C. This stimulation cycle was performed for a total of three times. […]
# For the pHLA multimer readout using up to eight different pHLA molecules per condition, a two-dimensional combinatorial coding approach was used as previously described (Andersen et al., 2012a; Andersen et al., 2012b) with minor modifications encompassing coupling to 5 different fluorochromes.
# Finally, multimeric analyses were performed by staining the cells with Live/dead near IR dye (Thermo Fisher Scientific, Waltham, USA), CD8-FITC antibody clone SK1 (BD, Heidelberg, Germany) and fluorescent pHLA multimers. […] Peptide-specific cells were calculated as percentage of total CD8+ cells. […] In vitro priming of specific multimer+CD8+ lymphocytes was detected by comparing to negative control stimulations.
substance,measurement,setting,value
RL(X)VGSIPR [HNRNPR-002],UV peptide-specific T cell populations (multimer+ cells among CD8+ cells),"stimulated with pHLA obtained after UV exchange A*03:01_HNRNPR-002×HADV-014 (residual UV monomer), three cycles, FIG. 5 B",6.7 % of CD8+ cells
KILGFVF(X)V [FLUM-003],Presence of peptide specific cells by multimer staining (standard refolded multimers),"after stimulation with A*02:01_FLUM-003×MLA-001, FIG. 3 C+D",confirmed the presence
same,Detection of conditional ligand specific cells by multimer staining with EC monomers from the same UV monomer,"priming with HLA-A*02_FLUM-003×CMV-001, FIG. 6 Plate B, stimulation position 1 and 2",FLUM-003 specific cells were stimulated and detected
SARPPL(X)SV [MUDENG-002],UV peptide-specific T cell populations (multimer+ cells among CD8+ cells),"stimulated with standard refolded pHLA B*07:02_MUDENG-002, three cycles of stimulation, FIG. 5 A",2.4 % of CD8+ cells
